Entries after “also recorded” stand apart in the source; their conditions may differ. Structures can show the parent of a compound that is named as a salt.

The values below come from US20040242590A1, “Pharmaceutical composition comprising gamma-butyrobetaine” (priority 2001, published 2004).

In data set [1] the test system is copulating activity of male rats. Briefly: rat copulating behaviour in state of physiological depression. In kind it is in vivo, Wistar rats. The method, then: The pharmacological effects of GBB, THP and their combination on the sexual activity of mammals was investigated by a model based on rat copulating behaviour in state of physiological depression.
Experiments were conducted on adult Wistar rats of both sexes with initial body weight of 300-330 g. During the experiment, the animals were kept in standard crates in groups of 6. The feed was a standartized diet R70 (LABFOR, Lactamin AB, Sweden). The room temperature was kept at 21-23° C., relative humidity at 65±10%, 12 hour light/darkness cycle. During one week before the experiment it was established that the average water consumption by the rats was 8.2-12% (average —10%) of their body mass.
Male rats were distributed randomly into 4 groups, each of 6 animals, and supplied for 6 weeks with the following aqueous solutions:
Group 1 (Control Group)—ding water without any additives;
Group 2 (GBB Group)—drinking water was supplemented by gamma-butyrobetaine (0.015% by weight), resulting in the average daily gamma-butyrobetaine intake of 15 mg/kg;
Group 3 (THP Group)—drinking water was supplemented by THP (0.06% by weight), resulting in the average daily THP intake of 60 mg/kg;
Group 4 (GBB+THP Group)—drinking water was supplemented by THP (0.06% by weight) and gamma-butyrobetaine (0.015% by weight), resulting in the average daily […]) intake of 60 mg/kg and gamma-butyrobetaine intake of 15 mg/kg.
The copulating activity of male rats was tested four times: after one week, after four weeks, after six weeks and 48-50 hours after the discontinuation of substance intake, when all animals were receiving drinking water without additives.
The tests were conducted between 10 and 12 a.m. 6 male rats of one group were placed into a clean, well illuminated crate (box). After 5 min. adaptation period 2 female rats were placed into the box for 10 minutes. For each male rat the following data were collected:
1) copulating intensity (number of copulations during the exposition period);
3) postcoital period—the behaviour of male rats during 5 min. period after the removal of females. The postcoital behaviour was characterized by following marks: 0—the animal is passive, lays down; 1—the rat is quiet; grooming; 2—the rat is mobile, rutting; 3—the animal is active, aggressive.
The female rats used were in the estrus phase, induced by i.p. injection of 0.2 ml 0.1% estradiol dipropionate 48 h before the test.

The subject of data set [2] is intracorporeal pressure (corpus cavernosum penis). Briefly: intracorporeal pressure in narcotized rats, intracavernous injection. In kind it is in vivo. The settings on record: for Increase of intracorporeal pressure, % of papaverine: in % of the increase produced by papaverine. The method, then:
(§1) The influence of the experimental substances on the penile erection was evaluated using the experimental model, where changes of intracorporeal pressure was measured (Chen K K et al. J Urol, 1992;147:1124). Rats were anesthetized by sodium pentobarbital (50 mg/kg i.p. plus additionally 8 mg/kg/h i.v.). Body temperature was kept at 37-37.4° C. (rectal control) by heating lamp. Endotracheal tube was inserted to assure adequate respiration under anesthesia. Number 25 needle filled with heparinized saline was connected to pressure transducer and introduced into corpus cavernosum penis. Intracavernous pressure and II standard lead on an ECG was continuously recorded on physiograph DMP-4B (Narco Bio-Systems, USA). In some experiments arterial pressure in common carotid artery was also recorded. The effects of experimental substances were determined both at intravenous and intracavernous introduction route. For the intracorporeal injection the substances were dissolved in isotonic (0.9%) NaCl solution and the dose introduced in 0.05 ml of liquid. […] Gamma-butyrobetaine (GBB) was introduced separately and in combination with THP or phosphodiesterase inhibitor, in particular, sildenafil. Gamma-butyrobetaine (GBB) (intracavernous injection 0.02-0.1 mg per rat, usually 0.05 mg per rat; intravenously 2.0 mg/kg) and THP (intracavernous injection 0.2 mg per rat; intravenously 10.0 mg/kg) were introduced separately and as combination (GBB+THP).

Data set [3] concerns intracavernous pressure (corpus cavernosum penis). Briefly: intracavernous pressure in narcotized rats, intravenous injection. In kind it is in vivo. The settings on record: for effect on intracorporeal pressure (in words): intravenous; for Duration of effect / Changes of intracavernous pressure / Reflectory increase of intracavernous pressure: intravenously: GBB 2.0 mg/kg, THP 10.0 mg/kg, sildenafil 3.0 mg/kg, papaverine 2.0 mg/kg. As to the method: as §1, with “Adult male rats, weighing 300-410 g were used. The influence” for “The influence”, “combination (GBB+THP). […] Since the intracavernous injection is not popular due to inconvenience to patient, intravenous route was selected for further evaluation.” for “combination (GBB+THP).”

For data set [4] the following is noted: subc.; cited from earlier work.
[5] abbreviates: 1 week of therapy, drinking water, GBB 15 mg/kg daily, THP 60 mg/kg daily.
Setting [6] is: 1 week of therapy, drinking water, GBB 15 mg/kg daily, THP 60 mg/kg daily, 10 min exposition.
[7] abbreviates: 4 weeks of therapy, behaviour marks 0-3.
[8] abbreviates: 4 weeks of therapy, drinking water, GBB 15 mg/kg daily, THP 60 mg/kg daily.
[9] abbreviates: 6 weeks of therapy, behaviour marks 0-3.
Where [10] appears, read: 6 weeks of therapy, drinking water, GBB 15 mg/kg daily, THP 60 mg/kg daily.
Setting [11] is: Post-therapy (48-50 hours after discontinuation).
[12] abbreviates: Post-therapy (48-50 hours after discontinuation), behaviour marks 0-3.

In general, LD50 refers to the dose at which mortality reaches 50%. For `C[N+](C)(C)CCCC(=O)[O-]` [GBB, gamma-butyrobetaine], the “delay time before attempts of mounting” value in data set [1] (setting [5]) was determined as 3.7 ± 0.9 min; in data set [1] (setting [10]) it was 2.8 ± 0.9 min; in data set [1] (setting [11]) it was 2.6 ± 0.6 min. For the same compound, the number of copulations in data set [1] (setting [6]) is reported as 0.8 ± 0.3; in data set [1] (setting [8]) it was 1.3 ± 0.5; in data set [1] (setting [11]), 0.7 ± 0.2. In addition, the entries for the “rat post-coital agitation period” value in data set [1] (setting [7]), in data set [1] (setting [9]) and in data set [1] (setting [12]) were 1.2 ± 0.3, 1.5 ± 0.4 and 1.2 ± 0.3, respectively. For the same compound, the “number of mounting attempts of male rats” value is listed as 3.7 ± 0.7 in data set [1] (setting [8]), 3.3 ± 0.6 in data set [1] (setting [10]) and 3.2 ± 0.5 in data set [1] (setting [11]). For the same compound, the “effect on intracorporeal pressure (in words)” value (“effect … (in words)” below) in data set [2] is given as “pronounced dose-dependent, but relatively short-termed increase; also recorded: inferior to that of papaverine”; in data set [3], “highly efficient”. Moreover, the “Increase of intracorporeal pressure, % of papaverine” value (“Increase … % of papaverine” for short) in data set [2] (dose 0.02 mg per rat) is listed as 30.6%; in data set [2] (dose 0.05 mg per rat), 85.7%. For the same compound, in data set [2] (dose 0.05 mg per rat), the “Increase of intracorporeal pressure” value is given as 31.5 ± 5.1 mmHg. Besides, the Duration of effect in data set [3] amounted to 2.8 ± 0.7 min. In addition, the 50% lethal dose (LD50) in data set [4] was 7000 mg/kg.

Consider `COc1ccc(Cc2nccc3cc(OC)c(OC)cc23)cc1OC` [Papaverine, Papaverine hydrochloride], for which, in data set [2] (dose 0.2 mg per rat), the Duration of effect amounted to 8.8 ± 1.4 min; the “Increase of intracorporeal pressure” value is reported as 36.75 ± 4.1 mmHg; the “Increase … % of papaverine” value is 100%. Besides, in data set [3], the “effect … (in words)” value is given as “little effect”, the “Changes of intracavernous pressure” value was found to be 0.6 ± 0.6 mm Hg, the Duration of effect is on record as 0.9 ± 0.9 min and the “Reflectory increase of intracavernous pressure” value amounted to 0.3 ± 0.3 mm Hg.

For the compound `CCCc1nn(C)c2c(=O)[nH]c(-c3cc(S(=O)(=O)N4CCN(C)CC4)ccc3OCC)nc12` [Sildenafil, sildenafil], in data set [2] (dose 0.15 mg per rat), the Duration of effect was determined as 7.5 ± 2.7 min; the “Increase of intracorporeal pressure” value turned out to be 38.5 ± 7.3 mmHg; the “Increase … % of papaverine” value is 104.8%. Moreover, in data set [3], the Duration of effect was 2.5 ± 1.1 min.

Take `C[N+](C)(C)NCCC(=O)[O-]` [THP, 3-(2,2,2-trimethylhydrazinium)propionate]: the “rat post-coital agitation period” value in data set [1] (1 week of therapy, behaviour marks 0-3 during 5 min after removal of females) was determined as 1.0 ± 0.4; in data set [1] (setting [7]), 1.4 ± 0.5; in data set [1] (setting [9]) it was 1.8 ± 0.3; in data set [1] (setting [12]), 1.2 ± 0.4. The “delay time before attempts of mounting” value in data set [1] (setting [5]) was determined as 5.3 ± 1.0 min; in data set [1] (setting [8]), 2.1 ± 0.5 min; in data set [1] (setting [10]), 2.3 ± 0.5 min; in data set [1] (setting [11]), 2.4 ± 0.7 min. The number of copulations was found to be 0.5 ± 0.3 in data set [1] (setting [6]), 1.2 ± 0.4 in data set [1] (setting [8]), 0.8 ± 0.3 in data set [1] (setting [10]) and 1.0 ± 0.3 in data set [1] (setting [11]). The “number of mounting attempts of male rats” value in data set [1] (setting [6]) came to 2.7 ± 0.6; in data set [1] (setting [8]), 3.0 ± 0.7; in data set [1] (setting [10]) it was 3.7 ± 0.5; in data set [1] (setting [11]) it was 3.4 ± 0.7. For the same compound, the “effect … (in words)” value in data set [2] is “did not produce significant changes”; in data set [3], “little effect”. Besides, in data set [2] (dose 0.2 mg per rat), the “Increase … % of papaverine” value stood at 7.3%. Further, the “Changes of intracavernous pressure” value in data set [3] is reported as 1.3 ± 0.9 mm Hg. The Duration of effect in data set [3] was determined as 0.9 ± 0.5 min. Further, the “Reflectory increase of intracavernous pressure” value in data set [3] amounted to 2.7 ± 1.2 mm Hg.
